Measured values from the NIST ThermoML archive (doi:10.1021/acs.jced.5b00838).
Numbers after ± are expanded uncertainties.

Experiment: excess molar enthalpy (molar enthalpy of mixing); xn = mol fraction of the nth substance listed
Conditions: 100 kPa, Liquid, isothermal titration calorimetry

CCCCCCOCC [1-ethoxyhexane] + CC#N
Conditions	excess molar enthalpy [kcal/mol]
298.15 K, x2 = 0.0307	0.028 ± 0.000526
298.15 K, x2 = 0.0596	0.0608 ± 0.000884
298.15 K, x2 = 0.0868	0.0887 ± 0.00122
298.15 K, x2 = 0.1125	0.112 ± 0.00148
298.15 K, x2 = 0.1368	0.132 ± 0.00174
298.15 K, x2 = 0.1816	0.166 ± 0.00213
298.15 K, x2 = 0.222	0.192 ± 0.00239
298.15 K, x2 = 0.2586	0.212 ± 0.00263
298.15 K, x2 = 0.2919	0.228 ± 0.00287
298.15 K, x2 = 0.3223	0.241 ± 0.00311
298.15 K, x2 = 0.3759	0.26 ± 0.00335
298.15 K, x2 = 0.4217	0.271 ± 0.00335
298.15 K, x2 = 0.4612	0.278 ± 0.00359
298.15 K, x2 = 0.5038	0.282 ± 0.00359
298.15 K, x2 = 0.5401	0.283 ± 0.00359
298.15 K, x2 = 0.5715	0.282 ± 0.00359
298.15 K, x2 = 0.5988	0.279 ± 0.00359
298.15 K, x2 = 0.6274	0.275 ± 0.00359
298.15 K, x2 = 0.6521	0.27 ± 0.00335
298.15 K, x2 = 0.6738	0.265 ± 0.00335
298.15 K, x2 = 0.6959	0.258 ± 0.00335
298.15 K, x2 = 0.7006	0.255 ± 0.00311
298.15 K, x2 = 0.7152	0.251 ± 0.00311
298.15 K, x2 = 0.7222	0.247 ± 0.00311
298.15 K, x2 = 0.7322	0.245 ± 0.00311
298.15 K, x2 = 0.7452	0.238 ± 0.00311
298.15 K, x2 = 0.7473	0.239 ± 0.00311
298.15 K, x2 = 0.7608	0.232 ± 0.00287
298.15 K, x2 = 0.7698	0.226 ± 0.00287
298.15 K, x2 = 0.796	0.212 ± 0.00263
298.15 K, x2 = 0.8241	0.194 ± 0.00239
298.15 K, x2 = 0.8419	0.182 ± 0.00234
298.15 K, x2 = 0.8604	0.167 ± 0.00215
298.15 K, x2 = 0.8799	0.151 ± 0.00196
298.15 K, x2 = 0.9002	0.131 ± 0.00172
298.15 K, x2 = 0.9215	0.108 ± 0.00146
298.15 K, x2 = 0.9362	0.091 ± 0.00124
298.15 K, x2 = 0.9514	0.0718 ± 0.00103
298.15 K, x2 = 0.967	0.0504 ± 0.000789
298.15 K, x2 = 0.9832	0.0264 ± 0.000526
308.15 K, x2 = 0.0303	0.0333 ± 0.000574
308.15 K, x2 = 0.0588	0.0672 ± 0.000956
308.15 K, x2 = 0.0857	0.0959 ± 0.00129
308.15 K, x2 = 0.1111	0.121 ± 0.0016
308.15 K, x2 = 0.1352	0.142 ± 0.00184
308.15 K, x2 = 0.1795	0.177 ± 0.00227
308.15 K, x2 = 0.2196	0.204 ± 0.00263
308.15 K, x2 = 0.2559	0.226 ± 0.00287
308.15 K, x2 = 0.2889	0.242 ± 0.00311
308.15 K, x2 = 0.3192	0.256 ± 0.00335
308.15 K, x2 = 0.3726	0.275 ± 0.00359
308.15 K, x2 = 0.4182	0.287 ± 0.00359
308.15 K, x2 = 0.4577	0.294 ± 0.00359
308.15 K, x2 = 0.5002	0.298 ± 0.00382
308.15 K, x2 = 0.5366	0.299 ± 0.00382
308.15 K, x2 = 0.568	0.297 ± 0.00382
308.15 K, x2 = 0.5954	0.294 ± 0.00382
308.15 K, x2 = 0.6241	0.29 ± 0.00359
308.15 K, x2 = 0.6489	0.285 ± 0.00359
308.15 K, x2 = 0.6707	0.279 ± 0.00359
308.15 K, x2 = 0.6929	0.272 ± 0.00335
308.15 K, x2 = 0.7087	0.264 ± 0.00335
308.15 K, x2 = 0.7123	0.265 ± 0.00335
308.15 K, x2 = 0.7294	0.258 ± 0.00335
308.15 K, x2 = 0.73	0.256 ± 0.00335
308.15 K, x2 = 0.7446	0.251 ± 0.00311
308.15 K, x2 = 0.7526	0.246 ± 0.00311
308.15 K, x2 = 0.7582	0.245 ± 0.00311
308.15 K, x2 = 0.7767	0.233 ± 0.00287
308.15 K, x2 = 0.8023	0.217 ± 0.00287
308.15 K, x2 = 0.8297	0.198 ± 0.00263
308.15 K, x2 = 0.847	0.185 ± 0.00237
308.15 K, x2 = 0.8651	0.17 ± 0.0022
308.15 K, x2 = 0.884	0.152 ± 0.00198
308.15 K, x2 = 0.9037	0.132 ± 0.00172
308.15 K, x2 = 0.9243	0.108 ± 0.00146
308.15 K, x2 = 0.9385	0.0909 ± 0.00124
308.15 K, x2 = 0.9531	0.0718 ± 0.00103
308.15 K, x2 = 0.9683	0.0503 ± 0.000789
308.15 K, x2 = 0.9839	0.0263 ± 0.000526
